Experimental data published in patent US12459951B2, “Compounds that interact with RAS superfamily proteins for treatment of cancers, inflammatory diseases, rasopathies, and fibrotic disease” (SHY Therapeutics, LLC, priority 2022, dated 2025).

Key:
IL6 = assay: IL-6 Quantification Assay (ELISA), LPS-stimulated RAW 264.7; assay type: cell-based; parameters: inhibition: dose or concentration left out as unconfirmed; conditions: Mus musculus, RAW264.7; read-out: IL-6: % inh.
Akt phosphorylation = assay: Akt Phosphorylation Assay (western blot), Panc-1; assay type: cell-based, human; conditions: at 10 μM, * = activation
Procedure, shortened: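 Panc-1 (KRas G12D) cells were treated with compound at 10 μM final (0.3% DMSO) for 6 h at 37 °C, or with serial dilutions for IC50. Cells were either serum-starved overnight in 0.5% FBS and then stimulated with 1.5 ng/ml EGF for 15 min, or kept in 10% FBS without stimulation. Akt Ser473 phosphorylation in lysates was read by western blot.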

KRas G12D mutant = assay: Ras GTP Binding Domain Inhibition Assay (Ras Superfamily Assay); conditions: 20 μM compound; for KRas G12D mutant + SOS: % inh.: with SOS; for KRas G12D mutant: % inh.: without SOS
Procedure, shortened: (§1)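 Ni-plate capture of His-tagged protein (10-30 μg/mL, o/n 4° C); cpd 20 μM or dilution series, 1% DMSO, 3 h RT ± Sos 556-1049 last h; 100 nM Cy-labelled GTP 45 min RT; 3× wash; fluorescence read.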

KRas wild type = assay: as above; conditions: 20 μM compound; for KRas wild type + SOS: % inh.: with SOS; for KRas wild type: % inh.: without SOS
Procedure, shortened: as §1

Rac-1 = biological target: T1, Rac-1 (Homo sapiens, UniProt P63000); assay: as above; conditions: read-out: Rac-1: % inh.
T1 construct: made in house
Procedure, shortened: as §1

KRas G12D mutant + SOS: % inh. (KRas G12D mutant) | KRas G12D mutant: % inh. (KRas G12D mutant) | KRas wild type + SOS: % inh. (KRas wild type) | KRas wild type: % inh. (KRas wild type) | inhibition at 20 µM (Rac-1) | Structure (SMILES) | inhibition (IL6) | % inh of Akt phosphorylation in Panc-1 (Akt phosphorylation)
A (A = 1-25% inhibition) | 0 (0 = 0% inhibition) | 0 (0 = 0% inhibition) | B (B = 26-49% inhibition) | 76 to 100% | Cc1c(-c2ccn(C(C)C)n2)cn2nc(-c3nccn3C)nc(Nc3ncc(C4CC4)o3)c12 [Compound 90, 5-Cyclopropyl-N-(6-(1-isopropyl-1H-pyrazol-3-yl)-5-methyl-2-(1-methyl-1H-imidazol-2-yl)pyrrolo[2,1-f][1,2,4]triazin-4-yl)oxazol-2-amine] | 0% | A* (1-25% activation)
D (D = 76-100% inhibition) | D (D = 76-100% inhibition) | C (C = 50-75% inhibition) | D (D = 76-100% inhibition) | 76 to 100% | Cc1c(-c2ccn(C(C)C)n2)cn2nc(-c3nccn3C)nc(Nc3cc4n(n3)CCO4)c12 [Compound 91, N-(6-(1-Isopropyl-1H-pyrazol-3-yl)-5-methyl-2-(1-methyl-1H-imidazol-2-yl)pyrrolo[2,1-f][1,2,4]triazin-4-yl)-2,3-dihydropyrazolo[5,1-b]oxazol-6-amine] | 1 to 24% | D* (85-100% activation)
A (A = 1-25% inhibition) | A (A = 1-25% inhibition) | 0 (0 = 0% inhibition) | 0 (0 = 0% inhibition) | 1 to 25% | COCCO[C@H]1C[C@H](Nc2nc(-c3nccn3C)nn3cc(-c4ccn(C(C)C)n4)c(C)c23)C1 [Compound 92, 6-(1-Isopropyl-1H-pyrazol-3-yl)-N-((1r,3r)-3-(2-methoxyethoxy)cyclobutyl)-5-methyl-2-(1-methyl-1H-imidazol-2-yl)pyrrolo[2,1-f][1,2,4]triazin-4-amine] | 50 to 74% | A* (1-25% activation)

Further lines, the compound ahead of its results:

Structure (SMILES) | KRas G12D mutant + SOS: % inh. (KRas G12D mutant) | KRas G12D mutant: % inh. (KRas G12D mutant) | KRas wild type + SOS: % inh. (KRas wild type) | KRas wild type: % inh. (KRas wild type) | inhibition at 20 µM (Rac-1) | inhibition (IL6) | % inh of Akt phosphorylation in Panc-1 (Akt phosphorylation)
COc1nccc(Nc2nc(-c3nccn3C)nn3cc(-c4ccn(C(C)C)n4)c(C)c23)n1 [Compound 86, 6-(1-Isopropyl-1H-pyrazol-3-yl)-N-(2-methoxypyrimidin-4-yl)-5-methyl-2-(1-methyl-1H-imidazol-2-yl)pyrrolo[2,1-f][1,2,4]triazin-4-amine] | C (C = 50-75% inhibition) | A (A = 1-25% inhibition) | 0 (0 = 0% inhibition) | B (B = 26-49% inhibition) | 50 to 75% | 75 to 100% | D* (85-100% activation)
COc1cc(Nc2nc(-c3nccn3C)nn3cc(-c4ccn(C(C)C)n4)c(C)c23)ccn1 [Compound 87, 6-(1-Isopropyl-1H-pyrazol-3-yl)-N-(2-methoxypyridin-4-yl)-5-methyl-2-(1-methyl-1H-imidazol-2-yl)pyrrolo[2,1-f][1,2,4]triazin-4-amine] | A (A = 1-25% inhibition) | A (A = 1-25% inhibition) | 0 (0 = 0% inhibition) | 0 (0 = 0% inhibition) | 0% | 0% | D* (85-100% activation)
COc1ncncc1Nc1nc(-c2nccn2C)nn2cc(-c3ccn(C(C)C)n3)c(C)c12 [Compound 88, 6-(1-Isopropyl-1H-pyrazol-3-yl)-N-(4-methoxypyrimidin-5-yl)-5-methyl-2-(1-methyl-1H-imidazol-2-yl)pyrrolo[2,1-f][1,2,4]triazin-4-amine] | A (A = 1-25% inhibition) | A (A = 1-25% inhibition) | 0 (0 = 0% inhibition) | 0 (0 = 0% inhibition) | 1 to 25% | 1 to 24% | D* (85-100% activation)
COc1cccnc1Nc1nc(-c2nccn2C)nn2cc(-c3ccn(C(C)C)n3)c(C)c12 [Compound 89, 6-(1-Isopropyl-1H-pyrazol-3-yl)-N-(3-methoxypyridin-2-yl)-5-methyl-2-(1-methyl-1H-imidazol-2-yl)pyrrolo[2,1-f][1,2,4]triazin-4-amine] | D (D = 76-100% inhibition) | D (D = 76-100% inhibition) | D (D = 76-100% inhibition) | D (D = 76-100% inhibition) | 76 to 100% | 75 to 100% | D* (85-100% activation)
